According to patent US10906915B2, “Substituted pyrazoloazepin-4-ones and their use as phosphodiesterase inhibitors” (LEO Pharma A/S, priority 2016, dated 2021):
Like-named read-outs stand apart in the source and are kept apart here.

Molecular target: human PDE4D catalytic domain (UniProt no. Q08499) (Homo sapiens (Human), UniProt Q08499)
Experiment: PDE4 assay (TR-FRET, FAM-cAMP cleavage)
Format: biochemical
Details: read-out: PDE4 IC50 range
Summary of the method: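 Read-out is time-resolved FRET from Tb donor to FAM-AMP captured on trivalent-metal nanoparticles added to stop the reaction. Substrate was a mix of plain and FAM-labelled cAMP, cleaved by human PDE4D catalytic domain ([…]) with titrated compound; IC50 ranges (nM) versus controls.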

[1] = human PDE4D catalytic domain, molar concentration giving 50% inhibition of substrate cleavage

Chain of human PDE4D catalytic domain (Q08499 380-740 limits assumed): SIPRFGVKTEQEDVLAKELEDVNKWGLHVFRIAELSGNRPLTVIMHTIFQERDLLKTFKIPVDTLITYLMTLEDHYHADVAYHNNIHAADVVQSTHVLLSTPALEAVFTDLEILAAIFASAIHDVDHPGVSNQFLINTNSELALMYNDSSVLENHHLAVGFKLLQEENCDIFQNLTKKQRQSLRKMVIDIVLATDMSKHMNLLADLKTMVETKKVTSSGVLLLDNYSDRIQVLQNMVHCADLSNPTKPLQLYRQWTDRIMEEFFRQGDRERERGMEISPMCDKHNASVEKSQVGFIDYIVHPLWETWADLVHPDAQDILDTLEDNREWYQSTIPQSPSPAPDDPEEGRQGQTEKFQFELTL

Structure (SMILES)	IC50 [1] [nM]	IC50 [nM]
CCc1nn(CCCOC(=O)c2ccc(C)c(C(F)(F)F)c2)c2c1C(=O)NCC1(CCOCC1)C2 [Example 103, 3-(3-ethyl-4-oxo-spiro[6,8-dihydro-5H-pyrazolo[4,3-c]azepine-7,4′-tetrahydropyran]-1-yl)propyl 4-methyl-3-(trifluoromethyl)benzoate]	< 100	–
CCc1nn(C[C@@H](C)COC(=O)c2ccc(C(F)F)cc2)c2c1C(=O)NCC1(CCOCC1)C2 [Example 197, [(2R)-3-(3-ethyl-4-oxo-spiro[6,8-dihydro-5H-pyrazolo[4,3-c]azepine-7,4′-tetrahydropyran]-1-yl)-2-methyl-propyl] 4-(difluoromethyl)benzoate]	< 100	–
CCc1nn(C[C@@H](C)COC(=O)c2ccc(C(=O)N(C)C)cc2)c2c1C(=O)NCC1(CCOCC1)C2 [Example 255, [(2R)-3-(3-ethyl-4-oxo-spiro[6,8-dihydro-5H-pyrazolo[4,3-c]azepine-7,4′-tetrahydropyran]-1-yl)-2-methyl-propyl] 4-(dimethylcarbamoyl)benzoate]	< 100	–
CCc1nn(C[C@@H](C)COC(=O)c2ccc(S(=O)(=O)C(C)C)cc2)c2c1C(=O)NCC1(CCOCC1)C2 [Example 243, [(2R)-3-(3-ethyl-4-oxo-spiro[6,8-dihydro-5H-pyrazolo[4,3-c]azepine-7,4′-tetrahydropyran]-1-yl)-2-methyl-propyl] 4-isopropylsulfonylbenzoate]	< 100	–
CCc1nn(CCCOC(=O)c2ccc(C(=O)NC)cc2)c2c1C(=O)NCC1(CCOCC1)C2 [Example 141, 3-(3-ethyl-4-oxo-spiro[6,8-dihydro-5H-pyrazolo[4,3-c]azepine-7,4′-tetrahydropyran]-1-yl)propyl 4-(methylcarbamoyl)benzoate]	< 100	–
CCc1nn(CCCOC(=O)c2cc(F)ccc2OC)c2c1C(=O)NCC1(CCOCC1)C2 [Example 68, 3-(3-ethyl-4-oxo-spiro[6,8-dihydro-5H-pyrazolo[4,3-c]azepine-7,4′-tetrahydropyran]-1-yl)propyl 5-fluoro-2-methoxy-benzoate]	< 100	–
CCc1nn(C[C@@H](C)COC(=O)c2cc(C#N)ccc2F)c2c1C(=O)NCC1(CCOCC1)C2 [Example 183, [(2R)-3-(3-ethyl-4-oxo-spiro[6,8-dihydro-5H-pyrazolo[4,3-c]azepine-7,4′-tetrahydropyran]-1-yl)-2-methyl-propyl] 5-cyano-2-fluoro-benzoate]	< 100	–
CCc1nn(CC2(COC(=O)c3ccc(C)cc3)CC2)c2c1C(=O)NCC1(CCOCC1)C2 [Example 351, [1-[(3-ethyl-4-oxo-spiro[6,8-dihydro-5H-pyrazolo[4,3-c]azepine-7,4′-tetrahydropyran]-1-yl)methyl]cyclopropyl]methyl 4-methylbenzoate]	–	< 100
CCNC(=O)c1cccc(C(=O)OCC(C)(C)Cn2nc(CC)c3c2CC2(CCOCC2)CNC3=O)c1 [Example 341, [3-(3-ethyl-4-oxo-spiro[6,8-dihydro-5H-pyrazolo[4,3-c]azepine-7,4′-tetrahydropyran]-1-yl)-2,2-dimethyl-propyl] 3-(ethylcarbamoyl)-benzoate]	–	< 100
CCc1nn(CCCOC(=O)c2ccc(C#N)c(F)c2)c2c1C(=O)NCC1(CCOCC1)C2 [Example 52, 3-(3-ethyl-4-oxo-spiro[6,8-dihydro-5H-pyrazolo[4,3-c]azepine-7,4′-tetrahydropyran]-1-yl)propyl 4-cyano-3-fluoro-benzoate]	< 100	–
CCc1nn(C[C@@H](C)COC(=O)c2ccc(F)cc2)c2c1C(=O)NCC1(CCOCC1)C2 [Example 166, [(2R)-3-(3-ethyl-4-oxo-spiro[6,8-dihydro-5H-pyrazolo[4,3-c]azepine-7,4′-tetrahydropyran]-1-yl)-2-methyl-propyl] 4-fluorobenzoate]	< 100	–
CCc1nn(CC(C)(C)COC(=O)c2cc(C(F)(F)F)ccc2Cl)c2c1C(=O)NCC1(CCOCC1)C2 [Example 315, [3-(3-ethyl-4-oxo-spiro[6,8-dihydro-5H-pyrazolo[4,3-c]azepine-7,4′-tetrahydropyran]-1-yl)-2,2-dimethyl-propyl] 2-chloro-5-(trifluoromethyl)benzoate]	–	< 100
CCc1nn(CCCOC(=O)c2ccc(Cl)c(C(F)(F)F)c2)c2c1C(=O)NCC1(CCOCC1)C2 [Example 122, 3-(3-ethyl-4-oxo-spiro[6,8-dihydro-5H-pyrazolo[4,3-c]azepine-7,4′-tetrahydropyran]-1-yl)propyl 4-chloro-3-(trifluoromethyl)benzoate]	< 100	–
CCc1nn(C[C@@H](C)COC(=O)c2ccc(F)c(F)c2)c2c1C(=O)NCC1(CCOCC1)C2 [Example 178, [(2R)-3-(3-ethyl-4-oxo-spiro[6,8-dihydro-5H-pyrazolo[4,3-c]azepine-7,4′-tetrahydropyran]-1-yl)-2-methyl-propyl] 3,4-difluorobenzoate]	< 100	–
CCc1nn(CCCOC(=O)c2cc(F)ccc2F)c2c1C(=O)NCC1(CCOCC1)C2 [Example 47, 3-(3-ethyl-4-oxo-spiro[6,8-dihydro-5H-pyrazolo[4,3-c]azepine-7,4′-tetrahydropyran]-1-yl)propyl 2,5-difluorobenzoate]	< 100	–
CCc1nn(CCCOC(=O)c2cccc(C(=O)N3CCCCC3)c2)c2c1C(=O)NCC1(CCOCC1)C2 [Example 156, 3-(3-ethyl-4-oxo-spiro[6,8-dihydro-5H-pyrazolo[4,3-c]azepine-7,4′-tetrahydropyran]-1-yl)propyl 3-(piperidine-1-carbonyl)benzoate]	< 100	–
CCc1nn(CC(C)(C)COC(=O)c2cccc(S(=O)(=O)N3CCCC3)c2)c2c1C(=O)NCC1(CCOCC1)C2 [Example 320, [3-(3-ethyl-4-oxo-spiro[6,8-dihydro-5H-pyrazolo[4,3-c]azepine-7,4′-tetrahydropyran]-1-yl)-2,2-dimethyl-propyl] 3-pyrrolidin-1-ylsulfonylbenzoate]	–	< 100
CCc1nn(C[C@@H](C)COC(=O)c2cccc(Cl)c2OC)c2c1C(=O)NCC1(CCOCC1)C2 [Example 209, [(2R)-3-(3-ethyl-4-oxo-spiro[6,8-dihydro-5H-pyrazolo[4,3-c]azepine-7,4′-tetrahydropyran]-1-yl)-2-methyl-propyl] 3-chloro-2-methoxy-benzoate]	< 100	–
CCc1nn(CCCCOC(=O)c2ccc(F)cc2)c2c1C(=O)NCC1(CCOCC1)C2 [Example 366, 4-(3-ethyl-4-oxo-spiro[6,8-dihydro-5H-pyrazolo[4,3-c]azepine-7,4′-tetrahydropyran]-1-yl)butyl 4-fluorobenzoate]	–	< 100
CCc1nn(CCCOC(=O)c2ccc(C(=O)N3CCN(C)CC3)cc2)c2c1C(=O)NCC1(CCOCC1)C2 [Example 148, 3-(3-ethyl-4-oxo-spiro[6,8-dihydro-5H-pyrazolo[4,3-c]azepine-7,4′-tetrahydropyran]-1-yl)propyl 4-(4-methylpiperazine-1-carbonyl)benzoate]	100 to 500	–
CCc1nn(CCCOC(=O)c2ccc(Cl)cc2F)c2c1C(=O)NCC1(CCOCC1)C2 [Example 85, 3-(3-ethyl-4-oxo-spiro[6,8-dihydro-5H-pyrazolo[4,3-c]azepine-7,4′-tetrahydropyran]-1-yl)propyl 4-chloro-2-fluoro-benzoate]	< 100	–
CCc1nn(CCCOC(=O)c2cccc(OC)c2Cl)c2c1C(=O)NCC1(CCOCC1)C2 [Example 91, 3-(3-ethyl-4-oxo-spiro[6,8-dihydro-5H-pyrazolo[4,3-c]azepine-7,4′-tetrahydropyran]-1-yl)propyl 2-chloro-3-methoxy-benzoate]	< 100	–
CCc1nn(C[C@@H](C)COC(=O)c2cc(C(F)(F)F)ccc2Cl)c2c1C(=O)NCC1(CCOCC1)C2 [Example 241, [(2R)-3-(3-ethyl-4-oxo-spiro[6,8-dihydro-5H-pyrazolo[4,3-c]azepine-7,4′-tetrahydropyran]-1-yl)-2-methyl-propyl] 2-chloro-5-(trifluoromethyl)benzoate]	< 100	–
CCc1nn(CCCOC(=O)c2cccc(F)c2C(F)(F)F)c2c1C(=O)NCC1(CCOCC1)C2 [Example 106, 3-(3-ethyl-4-oxo-spiro[6,8-dihydro-5H-pyrazolo[4,3-c]azepine-7,4′-tetrahydropyran]-1-yl)propyl 3-fluoro-2-(trifluoromethyl)benzoate]	< 100	–
CCc1nn(CC(C)(C)COC(=O)c2ccc(Cl)cc2)c2c1C(=O)NCC1(CCOCC1)C2 [Example 290, [3-(3-ethyl-4-oxo-spiro[6,8-dihydro-5H-pyrazolo[4,3-c]azepine-7,4′-tetrahydropyran]-1-yl)-2,2-dimethyl-propyl] 4-chlorobenzoate]	–	< 100
CCc1nn(CCCOC(=O)c2ccc(C(=O)NC(C)C)cc2)c2c1C(=O)NCC1(CCOCC1)C2 [Example 144, 3-(3-ethyl-4-oxo-spiro[6,8-dihydro-5H-pyrazolo[4,3-c]azepine-7,4′-tetrahydropyran]-1-yl)propyl 4-(isopropylcarbamoyl)-benzoate]	< 100	–
CCc1nn(CCCOC(=O)c2cccc(Cl)c2F)c2c1C(=O)NCC1(CCOCC1)C2 [Example 78, 3-(3-ethyl-4-oxo-spiro[6,8-dihydro-5H-pyrazolo[4,3-c]azepine-7,4′-tetrahydropyran]-1-yl)propyl 3-chloro-2-fluoro-benzoate]	< 100	–
CCc1nn(C[C@@H](C)COC(=O)c2ccc(C)cc2F)c2c1C(=O)NCC1(CCOCC1)C2 [Example 172, [(2R)-3-(3-ethyl-4-oxo-spiro[6,8-dihydro-5H-pyrazolo[4,3-c]azepine-7,4′-tetrahydropyran]-1-yl)-2-methyl-propyl] 2-fluoro-4-methyl-benzoate]	< 100	–
CCc1nn(CC(C)(C)COC(=O)c2cccc(C(F)(F)F)c2)c2c1C(=O)NCC1(CCOCC1)C2 [Example 302, [3-(3-ethyl-4-oxo-spiro[6,8-dihydro-5H-pyrazolo[4,3-c]azepine-7,4′-tetrahydropyran]-1-yl)-2,2-dimethyl-propyl] 3-(trifluoromethyl)benzoate]	–	< 100
